Reference: the supplement of paper PMC8633005

Columns and labels:
Experiment in all cases: drug sensitivity score (DSS) (DSS (unitless, 0-50 scale)); higher = more sensitive (stronger viability inhibition); extreme values may be limits of the assay
Details in all cases: 72 h; culture: 2D
FM-MEL-6 = system: FM-MEL-6
Procedure, shortened: (§1)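 Patient-derived melanoma cultures (1000–1500 cells per well) and melanoma cell lines were grown in 2D in 384-well plates holding a 527-compound oncology library. Each compound was dissolved in DMSO or water and tested at five concentrations spanning a 10,000-fold range. After 72 h at 37 °C, viability was read by CellTiter-Glo luminescence. A drug sensitivity score, a modified area-under-curve measure, was derived from dose-response curves fitted in the in-house Breeze software.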

FM-MEL-2 = system: FM-MEL-2
Procedure, shortened: as §1

SK-MEL-2 = system: SK-MEL-2
Procedure, shortened: as §1

WM165 = system: WM165
Procedure, shortened: as §1

SK-MEL-28 = system: SK-MEL-28
Procedure, shortened: as §1

WM852 = system: WM852
Procedure, shortened: as §1

Bowes = system: Bowes
Procedure, shortened: as §1

FM-MEL-3 = system: FM-MEL-3
Procedure, shortened: as §1

Row | SMILES | drug sensitivity score (FM-MEL-6) | drug sensitivity score (FM-MEL-2) | drug sensitivity score (SK-MEL-2) | drug sensitivity score (WM165) | drug sensitivity score (SK-MEL-28) | drug sensitivity score (WM852) | drug sensitivity score (Bowes) | drug sensitivity score (FM-MEL-3)
1 | Oc1ncnc2[nH]ncc12 [Allopurinol] | 0 | 0 | 0 | 0 | 0 | 0 | 0 | 0
2 | COc1cc2nccc(Oc3ccc(NC(=O)NC4CC4)c(Cl)c3)c2cc1C(N)=O [Lenvatinib] | 0 | 0 | 0 | 0 | 0 | 0 | 1.3 | 0
3 | CCNc1nc(Nc2cc(F)c(C(=O)N3CCOCC3)cc2OC)ncc1C(F)(F)F [GNE-7915] | 0 | 0 | 0 | 0 | 0 | 0 | 0 | 2.6
4 | Cc1ccc(=O)n(-c2ccccc2)c1 [Pirfenidone] | 0 | 0 | 0 | 0 | 0 | 0 | 0 | 0
5 | N#Cc1ccc2[nH]c(O)c(-c3ccc(CN4CCOCC4)cn3)c2c1 [AZD-1080] | 0 | 0 | 0 | 2.2 | 0 | 0.6 | 0 | 0
6 | N[C@@H]1CCCN(c2c(/C=C3\SC(=O)NC3=O)cccc2-c2ccccc2)C1 [AZD1208] | 0.8 | 2.8 | 0 | 0 | 0.4 | 0 | 0 | 2
7 | CC(C)[C@H](C(=O)Nc1ccc(C(=O)NO)cc1)c1ccccc1 [AR-42] | 11.6 | 9.8 | 12.7 | 14 | 10.3 | 3.9 | 6 | 11.8
8 | OC[C@H]1O[C@@H](n2cnc3c2N=CNC[C@H]3O)C[C@@H]1O [Pentostatin] | 0 | 0 | 0 | 0 | 0 | 0 | 0 | 1.8
9 | CN(C)CC#Cc1ccc(OCCCc2sc(N3CCc4cccc(C(=O)Nc5nc6ccccc6s5)c4C3)nc2C(=O)O)c(F)c1 | 0.7 | 4.6 | 0 | 0.2 | 0 | 0 | 0.5 | 16.7
10 | CO[C@H]1C[C@@H]2CC[C@@H](C)[C@@](O)(O2)C(=O)C(=O)N2CCCC[C@H]2C(=O)O[C@H]([C@H](C)C[C@@H]2CC[C@@H](O)[C@H](OC)C2)CC(=O)[C@H](C)/C=C(\C)[C@@H](O)[C@@H](OC)C(=O)[C@H](C)C[C@H](C)/C=C/C=C/C=C/1C [Sirolimus] | 1.2 | 0.2 | 0 | 4.5 | 0.9 | 0 | 0 | 0.2
11 | C/C(=C\c1csc(C)n1)[C@@H]1C[C@@H]2O[C@]2(C)CCC[C@H](C)[C@H](O)[C@@H](C)C(=O)C(C)(C)[C@@H](O)CC(=O)N1 [Ixabepilone] | 3.7 | 0.8 | 2.9 | 3.6 | 2.3 | 6.1 | 8.5 | 5
12 | O=C(Nc1ccc(OC(F)(F)Cl)cc1)c1cnc(N2CC[C@@H](O)C2)c(-c2cc[nH]n2)c1 [Asciminib] | 0 | 0.6 | 0 | 0 | 0 | 0.3 | 0 | 0.1
13 | COc1ccc(-c2nc(N3CCOCC3)c3sc(CN(C)c4ncc(C(=O)NO)cn4)cc3n2)cn1 [CUDC-907] | 32.8 | 33.1 | 33.1 | 38.5 | 28 | 20.8 | 22.5 | 36.9
14 | COc1cccc2c1C(=O)c1c(O)c3c(c(O)c1C2=O)C[C@@](O)(C(=O)CO)C[C@@H]3O[C@H]1C[C@H](N)[C@@H](O)[C@H](C)O1 [Epirubicin] | 8.6 | 6 | 5.3 | 14.3 | 7.4 | 4.6 | 4 | 7.6
15 | Cc1sc2c(c1C)C(c1ccc(Cl)cc1)=N[C@@H](CC(=O)Nc1ccc(O)cc1)c1nnc(C)n1-2 [Birabresib] | 6.7 | 6.2 | 0 | 12.1 | 2.9 | 0 | 4.5 | 7.6
16 | Cc1c(Cn2c(C)nc3c(C(=O)O)cc(N4CCOCC4)cc32)cccc1C(F)(F)F | 0 | 0 | 0 | 0 | 0.3 | 0 | 0 | 0
17 | Cc1cc2c(F)c(Oc3ncnn4cc(OC[C@@H](C)O)c(C)c34)ccc2[nH]1 [Brivanib] | 0 | 0 | 0 | 0 | 0 | 0 | 0 | 0
18 | CCNCCS(=O)(=O)NC[C@@]1(c2ccccc2)SC(NC(=O)C(C)(C)C)=NN1C(=O)C(C)(C)C [Litronesib] | 10.2 | 2.4 | 13.1 | 18.9 | 2.2 | 23.7 | 18.8 | 8.6
19 | Cc1cc(C(C)Nc2ccccc2)c2nc(N3CCOCC3)cc(=O)n2c1 (stereo unspecified) [TGX-221] | 0.9 | 2.2 | 0 | 0.1 | 3.3 | 1.2 | 0.6 | 1.1
20 | CCNC(=O)C[C@@H]1N=C(c2ccc(Cl)cc2)c2cc(OC)ccc2-n2c(C)nnc21 [Molibresib] | 5 | 3.8 | 0.5 | 6.5 | 1.8 | 0 | 3.8 | 4.8
21 | O=C(Nc1nc2cccc(-c3ccc(CN4CCS(=O)(=O)CC4)cc3)n2n1)C1CC1 [Filgotinib] | 4.5 | 0 | 0 | 0.7 | 0 | 5.9 | 4.5 | 0

Row | SMILES | drug sensitivity score (FM-MEL-6) | drug sensitivity score (FM-MEL-2) | drug sensitivity score (SK-MEL-2) | drug sensitivity score (WM165) | drug sensitivity score (SK-MEL-28) | drug sensitivity score (WM852) | drug sensitivity score (Bowes) | drug sensitivity score (FM-MEL-3)
22 | O=C(Nc1ccncc1)C(=O)c1cn(Cc2ccc(Cl)cc2)c2ccccc12 [Indibulin] | 6.9 | 1.4 | 3.7 | 7.8 | 4 | 5.3 | 11.1 | 6.1
23 | CCc1cncnc1N1CCN(Cc2nc3ccc(C(F)(F)F)cc3[nH]2)CC1 | 0.7 | 0.5 | 0 | 0 | 0 | 3.3 | 2.1 | 1.7
24 | Nc1ccccc1NC(=O)c1ccc(CNC(=O)OCc2cccnc2)cc1 [Entinostat] | 8.2 | 4.5 | 7.9 | 11.4 | 8.7 | 0.1 | 1.8 | 6.6
25 | CC(=O)O[C@]1(C(C)=O)CC[C@H]2[C@@H]3C=C(C)C4=CC(=O)CC[C@]4(C)[C@H]3CC[C@@]21C [Megestrol acetate] | 0 | 0 | 0 | 0 | 0 | 0 | 0 | 1
26 | CC[C@H](C)C(=O)O[C@H]1C[C@H](O)C=C2C=C[C@H](C)[C@H](CC[C@@H](O)C[C@@H](O)CC(=O)O)[C@H]21 [Pravastatin] | 0 | 0.8 | 0 | 0 | 0 | 0 | 0 | 0
27 | CNC(=O)c1cc(COc2nnc(Nc3ccc(Cl)cc3)c3ccoc23)ccn1 [Telatinib] | 0.1 | 0 | 0 | 0 | 0 | 0.3 | 0 | 0
28 | CNC(=O)c1cccc(-c2ccc3c(N4CCOC[C@@H]4C)nc(N4CCOC[C@@H]4C)nc3n2)c1 [Vistusertib] | 12.6 | 11 | 8.8 | 12.5 | 12.1 | 8.5 | 14 | 11.6
29 | COc1ccc(-c2ccc3ncc4c(c3c2)n(-c2ccc(N3CCNCC3)c(C(F)(F)F)c2)c(=O)n4C)cn1 [NVP-BGT226] | 12 | 11.7 | 13.6 | 18.3 | 11.5 | 11.9 | 19 | 13.1
30 | Cc1ccc(NC(=O)c2ccc(CN3CCN(C)CC3)cc2)cc1Nc1nccc(-c2cccnc2)n1 [Imatinib] | 0 | 0.8 | 0 | 0.1 | 0.2 | 0.7 | 1 | 0
31 | COc1cc(OC2CCN(C)CC2)ccc1Nc1ncc2c(n1)n(C1CCCC1)c(=O)n2C [AZ 3146] | 3 | 3.3 | 1.3 | 5.5 | 1.7 | 3.2 | 3.3 | 2.2
32 | C[C@@H]1CCN(C(=O)CC#N)C[C@@H]1N(C)c1ncnc2[nH]ccc12 [Tofacitinib] | 0 | 0 | 0 | 0 | 0 | 0 | 0 | 0
33 | CCN(CC)CCCC(C)Nc1ccnc2cc(Cl)ccc12 (stereo unspecified) [Chloroquine] | 9.4 | 9.4 | 7 | 9.7 | 8.3 | 8.6 | 7 | 7.3
34 | Cc1c(-c2c(-c3ccc(F)o3)sc3ncnc(O[C@H](Cc4ccccc4OCc4ccnn4CC(F)(F)F)C(=O)O)c23)ccc(OCCN2CCN(C)CC2)c1Cl | 1.9 | 3.2 | 5.3 | 0 | 0 | 0 | 16.9 | 8.7
35 | CC(=O)N(O)CCCCCNC(=O)CCC(=O)N(O)CCCCCNC(=O)CCC(=O)N(O)CCCCCN [Deferoxamine] | 1.8 | 0.6 | 0 | 3.8 | 0.9 | 4.9 | 2.9 | 0
36 | CNc1nc(Nc2cn(C(C)(C)C#N)nc2C)ncc1C(F)(F)F [GNE-0877] | 0 | 0 | 0 | 0 | 0 | 0 | 0 | 0
37 | CC(=O)Nc1ccc(C(=O)Nc2ccccc2N)cc1 [Tacedinaline] | 1.7 | 1.6 | 0 | 0 | 0 | 1.5 | 0 | 2.7
38 | C[C@H]1C[C@@H]2[C@H]([C@@H](O)C[C@@]3(C)[C@H]2CC[C@]3(O)C(=O)CO)[C@@]2(C)C=CC(=O)C=C12 [Methylprednisolone] | 0 | 0 | 0 | 0 | 0.4 | 0 | 1 | 1.2
39 | Cc1ccc(NC(=O)c2ccc(CN3CC[C@H](N(C)C)C3)c(C(F)(F)F)c2)cc1Nc1nccc(-c2cncnc2)n1 [Bafetinib] | 0 | 2.3 | 0 | 2.9 | 1.3 | 0 | 0 | 1.7
40 | Oc1nc(-c2ccc(C(F)(F)F)cc2)nc2c1CSCC2 [XAV-939] | 0 | 0 | 0 | 0 | 0 | 0 | 0 | 0
41 | CC(C)C[C@@H](C(=O)N[C@H](C(=O)OC1CCCC1)c1ccccc1)[C@H](O)C(=O)NO [Tosedostat] | 7.9 | 6.3 | 5.3 | 6.8 | 6.7 | 0.7 | 1.4 | 6.3
42 | NCC(=O)Nc1ccc(-n2nc(C(F)(F)F)cc2-c2ccc3c(ccc4ccccc43)c2)cc1 | 0.4 | 0.4 | 0 | 3.4 | 2.5 | 0 | 0 | 0
